Assay results as given in US20090053237A1, “USE OF PENICILLIN-BINDING PROTEINS OR POLYNUCLEOTIDES OR ANTIBODIES THEREOF FOR PREVENTING OR TREATING BACTERIAL INFECTIONS” (priority 2005, published 2009).

Experiments:
Assay type in all cases: cell-based
[1] = system: Neisseria meningitidis strain TR 16504; experiment: MIC of penicillin G, strain TR 16504; conditions: strain TR 16504, serogroup C
Source text: (§1) Features of all Neisseria meningitidis strains for which a recombinant Neisseria meningitidis PBP2 fragment lacking the N-terminal transmembrane domain was produced are listed in following Table 3.

[2] = system: Neisseria meningitidis strain TR TH-41; experiment: MIC of penicillin G, strain TR TH-41; conditions: strain TR TH-41, serogroup C
Source text: as §1

[3] = system: Neisseria meningitidis strain LNP17041; experiment: MIC of penicillin G, strain LNP17041; conditions: strain LNP17041, serogroup B
Source text: as §1

[4] = system: Neisseria meningitidis strain LNP16454; experiment: MIC of penicillin G, strain LNP16454; conditions: strain LNP16454, serogroup C
Source text: as §1

[5] = system: Neisseria meningitidis strain LNP16504; experiment: MIC of penicillin G, strain LNP16504; conditions: strain LNP16504, serogroup B
Source text: as §1

[6] = system: Neisseria meningitidis strain LNP8013; experiment: MIC of penicillin G, strain LNP8013; conditions: strain LNP8013, serogroup C
Source text: as §1

[7] = system: Neisseria meningitidis strain TR 16454; experiment: MIC of penicillin G, strain TR 16454; conditions: strain TR 16454, serogroup C
Source text: as §1

[8] = system: Neisseria meningitidis strain LNP17723; experiment: MIC of penicillin G, strain LNP17723; conditions: strain LNP17723, serogroup C
Source text: as §1

SMILES: CC1(C)S[C@@H]2[C@H](NC(=O)Cc3ccccc3)C(=O)N2[C@H]1C(=O)O [Penicillin G]
- MIC Penicillin G [1]: 0.38 µg/mL
- MIC Penicillin G [2]: 0.5 µg/mL
- MIC Penicillin G [3]: 0.5 µg/mL
- MIC Penicillin G [4]: 1 µg/mL
- MIC Penicillin G [5]: 0.25 µg/mL
- MIC Penicillin G [6]: 0.094 µg/mL
- MIC Penicillin G [7]: 0.5 µg/mL
- MIC Penicillin G [8]: 0.75 µg/mL
